Experimental data as given in PubChem BioAssay (NCI).
“And” between values parts separate entries of the source, which are not always exact repeats. Identical values can stand only once.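 Cells were grown in 96-well plates and exposed to each compound for 48 hours at five concentrations; endpoints were interpolated linearly between bracketing concentrations, or set to the highest concentration if not reached. The concentration for 50% growth inhibition is given as GI50. Definition used: TGI = concentration required for complete inhibition of growth.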

Key:
Test in all cases: growth of human tumour cells (NCI), 48 h
NCI-H23 lung = test system: NCI-H23 lung
SNB-19 CNS = test system: SNB-19 CNS
NCI-H226 lung = test system: NCI-H226 lung
KM12 colon = test system: KM12 colon
A549 NSCLC = test system: A549 NSCLC
M19-MEL melanoma = test system: M19-MEL melanoma
MDA-MB-231 breast = test system: MDA-MB-231 breast
HT29 colon = test system: HT29 colon
DLD-1 colon = test system: DLD-1 colon
SR leukemia = test system: SR leukemia

| Structure (SMILES) | GI50 (NCI-H23 lung) [nM] | TGI (NCI-H23 lung) | GI50 (SNB-19 CNS) [nM] | TGI (SNB-19 CNS) | GI50 (NCI-H226 lung) [nM] | TGI (KM12 colon) [nM] | TGI (A549 NSCLC) [nM] | GI50 (M19-MEL melanoma) [nM] | TGI (MDA-MB-231 breast) [nM] | TGI (HT29 colon) [nM] | TGI (DLD-1 colon) [nM] | TGI (NCI-H226 lung) [nM] | TGI (M19-MEL melanoma) [nM] | GI50 (HT29 colon) [nM] | GI50 (KM12 colon) [nM] | GI50 (A549 NSCLC) [nM] | GI50 (SR leukemia) [nM] | TGI (SR leukemia) [nM] | GI50 (MDA-MB-231 breast) [nM] | GI50 (DLD-1 colon) [nM] |
| --- | --- | --- | --- | --- | --- | --- | --- | --- | --- | --- | --- | --- | --- | --- | --- | --- | --- | --- | --- | --- |
| COc1cccc2c1C(=O)c1c(O)c3c(c(O)c1C2=O)CC(O)(C(O)CO)CC3OC1CC(N2CCOCC2)C(O)C(C)O1 (stereo not given) | 17.4 | 24.9 nM and 41.9 nM | 30.5 | 139 nM and 801 nM | < 1 | 114 | 472 | < 1 | 243 |  |  |  |  |  |  |  |  |  |  |  |
| CC(=O)NNc1nc(C)c(C(=O)/C=C/c2ccccc2Cl)s1 |  | > 100000 nM |  | > 100000 nM |  | > 100000 | > 100000 |  |  | > 100000 | > 100000 | > 100000 | > 100000 |  |  |  |  |  |  |  |
| CC1OC(n2c3ccccc3c3c4c(c5c6ccccc6[nH]c5c32)C(=O)N(CCN[C@@H]2CCC[C@H]2N)C4=O)CC(O)C1O (stereo not given in full) | 1700 | 7600 nM | 1390 | 6580 nM | 1790 | 6110 | 9170 |  | 8160 | 5460 |  | 8820 |  | 1330 | 1350 | 2480 | 439 | 3940 | 1880 |  |
| CC1CC2OC(=O)C(C)C2CC2(C)C(OC3OC(CO)C(O)C(O)C3O)OCCC12 (stereo not given) |  | > 100000 nM |  | > 100000 nM |  | > 100000 | > 100000 |  | > 100000 | > 100000 |  | > 100000 |  |  |  |  |  | > 100000 |  |  |
| Cc1cc(NCCN(C(C)C)C(C)C)nc(/N=C(\N)Nc2ccc(Cl)c(C(F)(F)F)c2)n1 | 1490 | 3080 nM | 1480 | 2830 nM | 1960 | 1790 | 1110 |  | 1040 | 919 |  | 4150 |  | 267 | 674 | 356 | 155 | 425 | 292 |  |
| N.N.N.N.N.[Cl-].[Co+3].c1ccc(-c2nn[n-]n2)cc1 | > 100000 | > 100000 nM | > 100000 | > 100000 nM | > 100000 | > 100000 | > 100000 |  |  | > 100000 | > 100000 | > 100000 |  | > 100000 | > 100000 | > 100000 | > 100000 | > 100000 |  | > 100000 |
| COc1cccc(C2=C(c3c(C)n(C)c4ccccc34)C(=O)NC2=O)c1 | > 25000 | > 25000 nM | > 25000 | > 25000 nM | > 19100 | > 25000 | > 25000 |  | > 25000 | > 25000 |  | > 25000 |  | 14400 | 15500 | 16400 | 11800 | > 25000 | > 25000 |  |
| CN[C@H](C#Cc1c(F)ccc2c1/C(=C/c1[nH]ccc1OC)C(=O)N2)CO | 657 | 3110 nM | 1060 | 21000 nM | 410 | 1760 | 2820 |  | 3000 | 2390 |  | 1720 |  | 438 | 36 | 354 | 109 | 1910 | 787 |  |
